# Experimental data as given in patent US12643879B2, “Functionalized heterocyclic compounds as modulators of stimulator of interferon genes (STING)” (RYVU THERAPEUTICS S.A., priority 2019, dated 2026).
# Like-named read-outs stand apart in the source and are kept apart here.
# Legend:
# [1] = tested on: NF-κB pathway in THP-1 dual cells; assay: THP-1 Dual reporter assay, NF-κB pathway (SEAP); format: cell-based; conditions: Homo sapiens, THP1-Dual, read-out: THP1 Dual EC50 (μM) NFkB
# Outline: (§1)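 IRF output: ISRE-ISG54 luciferase in collected medium, luminescence measured immediately on reagent addition. NF-κB output: SEAP under NF-κB-element IFN-β promoter, detection medium 1 or 2 h at 37° C, absorbance 630 or 655 nm. Cells were stimulated with STING agonist for 18 h beforehand.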
# human STING = human STING (Homo sapiens, UniProt Q86WV6); assay: Fluorescence Thermal Shift assay (binding to STING); conditions: STING 0.1 mg/mL, SyproOrange, 25 to 99° C.
# Chain of human STING (Q86WV6 whole entry H232R): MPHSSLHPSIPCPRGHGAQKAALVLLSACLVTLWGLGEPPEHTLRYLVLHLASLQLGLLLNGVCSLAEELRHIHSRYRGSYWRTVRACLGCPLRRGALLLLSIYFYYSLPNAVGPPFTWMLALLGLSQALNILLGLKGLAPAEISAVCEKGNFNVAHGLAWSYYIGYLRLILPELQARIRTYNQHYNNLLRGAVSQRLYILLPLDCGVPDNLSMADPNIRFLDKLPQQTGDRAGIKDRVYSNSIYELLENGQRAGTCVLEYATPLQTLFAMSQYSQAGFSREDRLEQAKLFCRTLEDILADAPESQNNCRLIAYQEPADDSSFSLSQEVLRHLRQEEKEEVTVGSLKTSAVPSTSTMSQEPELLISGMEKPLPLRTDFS
# Method: Compounds, constructs and conjugates of the present invention were tested for binding to human STING in Fluorescence Thermal Shift assay. STING was preincubated with the compounds for 20 minutes in 50 mM Hepes, 150 mM NaCl, pH 7.5 in 15 or 16 μl volume, following by adding 4 μl of SyproOrange dye dilution (ThermoFisher, cat no. S-6651). Final STING concentration was 0.1 mg/mL. Thermal unfolding was performed in Real-Time PCR QuantStudio 6 Flex System (Applied Biosystems), from 25 to 99° C., with continuous ramp mode and ramp rate 0.033° C./s. The data were analyzed using Protein Thermal Shift Software (ThermoFisher).
# [2] = tested on: interferon regulatory factor (IRF) pathway in THP-1 dual cells; assay: THP-1 Dual reporter assay, IRF pathway (luciferase); format: cell-based; conditions: Homo sapiens, THP1-Dual, read-out: THP1 Dual EC50 (μM) IRF
# Outline: as §1
# [3] = 18 h stimulation, absorbance at 630 or 655 nm
Compound,"EC50 [1, 3] [µM]",hSTING FTS binding assay (ΔT C. °) (human STING),"EC50 ([2]; 18 h stimulation, luminescence) [µM]",EC50 ([1]; 18 h) [µM],EC50 ([2]; 18 h) [µM]
"Cc1cc(CN(Cc2cn(C(C)C)c3cc(N4CC[C@@H](O)C4)ccc3c2=O)[C@H]2CCCN(c3ccnnc3)C2)ccn1 [Example 49, 7-[(3R)-3-hydroxypyrrolidin-1-yl]-3-({[(2-methylpyridin-4-yl)methyl][(3S)-1-(pyridazin-4-yl)piperidin-3-yl]amino}methyl)-1-(propan-2-yl)-1,4-dihydroquinolin-4-one]",> 10,+ (+=ΔTm ≤10° C.),> 10,,
"Cc1ccc(N2CCC[C@H](N(Cc3ccnc(C)c3)Cc3cn(C4CC4)c4cc(N)c(F)cc4c3=O)C2)cn1 [Example 7, 7-Amino-1-cyclopropyl-6-fluoro-3-({[(3S)-1-(6-methylpyridin-3-yl)piperidin-3-yl][(2-methylpyridin-4-yl)methyl]amino}methyl)-1,4-dihydroquinolin-4-one]",< 1,+++ (+++=ΔTm ≥20° C.),< 1,,
"Cc1ccc(N2CCC[C@H](N(Cc3ccnc(C)c3)Cc3cn(C4CC4)c4cc(OCCN)c(F)cc4c3=O)C2)cn1 [Example 10, 7-(2-Aminoethoxy)-1-cyclopropyl-6-fluoro-3-({[(3S)-1-(6-methylpyridin-3-yl)piperidin-3-yl][(2-methylpyridin-4-yl)methyl]amino}methyl)-1,4-dihydroquinolin-4-one]",< 1,+++ (+++=ΔTm ≥20° C.),< 1,,
"Cc1ccc(N2CCC[C@H](N(Cc3ccnc(C)c3)Cc3cn(C4CC4)c4cc(N5CCC[C@@H](N)C5)c(F)cc4c3=O)C2)cn1 [Example 17, 7-[(3R)-3-Aminopiperidin-1-yl]-1-cyclopropyl-6-fluoro-3-({[(3S)-1-(6-methylpyridin-3-yl)piperidin-3-yl][(2-methylpyridin-4-yl)methyl]amino}methyl)-1,4-dihydroquinolin-4-one]",< 1,+++ (+++=ΔTm ≥20° C.),< 1,,
"Cc1ccc(N2CCC[C@H](N(Cc3ccnc(C)c3)Cc3cn(C4CC4)c4cc(N5CCC(C(=O)O)CC5)c(F)cc4c3=O)C2)cn1 [Example 67, 1-[1-cyclopropyl-6-fluoro-3-({[(3S)-1-(6-methylpyridin-3-yl)piperidin-3-yl][(2-methylpyridin-4-yl)methyl]amino}methyl)-4-oxo-1,4-dihydroquinolin-7-yl]piperidine-4-carboxylic acid]",1 to 10,+++ (+++=ΔTm ≥20° C.),1 to 10,,
"Cc1ccc(N2CCC[C@H](N(Cc3ccnc(N)c3)Cc3cn(C4CC4)c4cc(F)c(F)cc4c3=O)C2)cn1.Cl [Example 5, 3-({[(2-Aminopyridin-4-yl)methyl][(3S)-1-(6-methylpyridin-3-yl)piperidin-3-yl]amino}methyl)-1-cyclopropyl-6,7-difluoro-1,4-dihydroquinolin-4-one hydrochloride]",< 1,+++ (+++=ΔTm ≥20° C.),< 1,,
"Cc1ccc(N2CCC[C@H](N(Cc3ccnc(C)c3)Cc3cn(CCN)c4ccccc4c3=O)C2)cn1 [Example 18, 1-(2-Aminoethyl)-3-({[(3S)-1-(6-methylpyridin-3-yl)piperidin-3-yl][(2-methylpyridin-4-yl)methyl]amino}methyl)-1,4-dihydroquinolin-4-one]",,+ (+=ΔTm ≤10° C.),,1 to 10,1 to 10
"Cc1cc(CN(Cc2cn(C)c3ccccc3c2=O)[C@H]2CCCN(c3ccc(CN)nc3)C2)ccn1.Cl [Example 3, 3-({[(3S)-1-[6-(Aminomethyl)pyridin-3-yl]piperidin-3-yl][(2-methylpyridin-4-yl)methyl]amino}methyl)-1-methyl-1,4-dihydroquinolin-4-one hydrochloride]",1 to 10,+ (+=ΔTm ≤10° C.),< 1,,
"Cc1ccc(N2CCC[C@H](N(Cc3ccnc(C)c3)Cc3cn(C4CC4)c4cc(N5CCC(N)C(F)(F)C5)c(F)cc4c3=O)C2)cn1 (stereo partly drawn) [Example 26, 7-(4-amino-3,3-difluoropiperidin-1-yl)-1-cyclopropyl-6-fluoro-3-({[(3S)-1-(6-methylpyridin-3-yl)piperidin-3-yl][(2-methylpyridin-4-yl)methyl]amino}methyl)-1,4-dihydroquinolin-4-one]",< 1,+++ (+++=ΔTm ≥20° C.),< 1,,
"Cc1ccc(N2CCC[C@H](N(Cc3ccnc(C)c3)Cc3cn(C4CC4)c4cc(N5CC[C@@H](O)C5)c(F)cc4c3=O)C2)cn1.Cl [Example 14, 1-Cyclopropyl-6-fluoro-7-[(3R)-3-hydroxypyrrolidin-1-yl]-3-({[(3S)-1-(6-methylpyridin-3-yl)piperidin-3-yl][(2-methylpyridin-4-yl)methyl]amino}methyl)-1,4-dihydroquinolin-4-one hydrochloride]",< 1,+++ (+++=ΔTm ≥20° C.),< 1,,
"Cc1ccc(N2CCC[C@H](N(Cc3ccnc(C)c3)Cc3cn(C4CC4)c4cc(N5CCC(O)CC5)c(F)cc4c3=O)C2)cn1.Cl [Example 32, 1-cyclopropyl-6-fluoro-7-(4-hydroxypiperidin-1-yl)-3-({[(3S)-1-(6-methylpyridin-3-yl)piperidin-3-yl][(2-methylpyridin-4-yl)methyl]amino}methyl)-1,4-dihydroquinolin-4-one hydrochloride]",< 1,+++ (+++=ΔTm ≥20° C.),< 1,,
"Cc1ccc(N2CCC[C@H](N(Cc3ccnc(C)c3)Cc3cn(C4CC4)c4cc(N5CC[C@@H](CN)C5)c(F)cc4c3=O)C2)cn1.Cl [Example 20, 7-[(3S)-3-(aminomethyl)pyrrolidin-1-yl]-1-cyclopropyl-6-fluoro-3-({[(3S)-1-(6-methylpyridin-3-yl)piperidin-3-yl][(2-methylpyridin-4-yl)methyl]amino}methyl)-1,4-dihydroquinolin-4-one hydrochloride]",< 1,+++ (+++=ΔTm ≥20° C.),< 1,,
"Cc1cc(CN(Cc2cn(C3COC3)c3ccccc3c2=O)[C@H]2CCCN(c3ccc(N)nc3)C2)ccn1 [Example 35, 3-({[(3S)-1-(6-aminopyridin-3-yl)piperidin-3-yl][(2-methylpyridin-4-yl)methyl]amino}methyl)-1-(oxetan-3-yl)-1,4-dihydroquinolin-4-one]",< 1,+++ (+++=ΔTm ≥20° C.),< 1,,
"Cc1ccc(N2CCC[C@H](N(Cc3ccnc(C)c3)Cc3cn(C4CC4)c4cc(N5CCC(F)(CN)C5)c(F)cc4c3=O)C2)cn1 (stereo partly drawn) [Example 30, 7-[3-(aminomethyl)-3-fluoropyrrolidin-1-yl]-1-cyclopropyl-6-fluoro-3-({[(3S)-1-(6-methylpyridin-3-yl)piperidin-3-yl][(2-methylpyridin-4-yl)methyl]amino}methyl)-1,4-dihydroquinolin-4-one]",< 1,+++ (+++=ΔTm ≥20° C.),< 1,,
"CN[C@H]1CCN(c2cc3c(cc2F)c(=O)c(CN(Cc2ccnc(C)c2)[C@H]2CCCN(c4ccc(C)nc4)C2)cn3C2CC2)C1.Cl [Example 58, 1-cyclopropyl-6-fluoro-7-[(3S)-3-(methylamino)pyrrolidin-1-yl]-3-({[(3S)-1-(6-methylpyridin-3-yl)piperidin-3-yl][(2-methylpyridin-4-yl)methyl]amino}methyl)-1,4-dihydroquinolin-4-one hydrochloride]",< 1,+++ (+++=ΔTm ≥20° C.),< 1,,
"CNCCOc1cc2c(cc1F)c(=O)c(CN(Cc1ccnc(C)c1)[C@H]1CCCN(c3ccc(C)nc3)C1)cn2C1CC1.Cl [Example 11, 1-Cyclopropyl-6-fluoro-7-[2-(methylamino)ethoxy]-3-({[(3S)-1-(6-methylpyridin-3-yl)piperidin-3-yl][(2-methylpyridin-4-yl)methyl]amino}methyl)-1,4-dihydroquinolin-4-one hydrochloride]",< 1,+++ (+++=ΔTm ≥20° C.),< 1,,
"Cc1ccc(N2CCC[C@H](N(Cc3ccnc(C)c3)Cc3cn(C4CC4)c4nc(N5CC[C@@H](O)C5)c(F)cc4c3=O)C2)cn1.Cl [Example 37, 1-cyclopropyl-6-fluoro-7-[(3R)-3-hydroxypyrrolidin-1-yl]-3-({[(3S)-1-(6-methylpyridin-3-yl)piperidin-3-yl][(2-methylpyridin-4-yl)methyl]amino}methyl)-1,4-dihydro-1,8-naphthyridin-4-one hydrochloride]",< 1,+++ (+++=ΔTm ≥20° C.),< 1,,
"Cc1ccc(N2C[C@@H](F)C[C@H](N(Cc3ccnc(C)c3)Cc3cn(C4CC4)c4cc(OCCO)c(F)cc4c3=O)C2)cn1 [Example 75, 1-cyclopropyl-6-fluoro-3-({[(3S,5S)-5-fluoro-1-(6-methylpyridin-3-yl)piperidin-3-yl][(2-methylpyridin-4-yl)methyl]amino}methyl)-7-(2-hydroxyethoxy)-1,4-dihydroquinolin-4-one]",< 1,+++ (+++=ΔTm ≥20° C.),< 1,,
